# Results as given in patent publication US9918966B2, “Anti-cancer compositions and methods” (The Penn State Research Foundation, priority 2013, dated 2018).
# Tests used:
# [1] = tested on: UACC 903 melanoma cells; assay: Cell proliferation ELISA BrdU; type: cell-based, human; conditions: UACC 903, 72 h, increasing concentrations
# Source text: (§1) Data represent averages of at least 3 independent experiments; bars; S.E.M.
# (§2) Percentage of proliferating and apoptotic cells are quantified by a colorimetric using cell proliferation ELISA BrdU kit (Roche Applied Sciences, Indianapolis, Ind.) and Apo-ONE Homogenous caspase-3/7 assay kit (Promega, Madison Wis.), as described in Sharma A, et al., Clin Cancer Res 2009; 15:1674-85; and Madhunapantula S V, et al., Mal Cancer Ther 2008; 7:1297-308.
# [2] = tested on: 1205 Lu melanoma cells; assay: Cell proliferation ELISA BrdU; type: cell-based, human; conditions: 72 h, increasing concentrations
# Source text: as §1, §2
# [3] = tested on: 1205 Lu tumors; type: in vivo, athymic-Foxn1nu nude mice
# Experimental: (§3) Tumor kinetics are measured by subcutaneous injection of 1×10^6 1205 Lu or UACC 903 cells in 0.2 mL of DMEM supplemented with 10% FBS subcutaneously injected above both left and right rib cages of 3- to 4-wk-old female athymic-Foxn1^nu nude mice (Harlan Sprague Dawley, IN).
# [4] = tested on: UACC 903 tumors; type: in vivo, athymic-Foxn1nu nude mice
# Experimental: as §3
# [5] = tested on: UACC 903 melanoma cells; assay: Apo-ONE caspase-3/7 assay (apoptosis); type: cell-based, human
# Source text: as §1
# [6] = tested on: 1205 Lu melanoma cells; assay: Apo-ONE caspase-3/7 assay (apoptosis); type: cell-based, human; conditions: 72 h, dose dependent up to 25 μmol/L
# Source text: as §1
# [7] = tested on: various cancer cell lines; assay: Killing of various cancer cell lines compared with normal fibroblast cells; type: cell-based, human; conditions: MiaPaca-2, MDA-MB-231, PC-3, HT-1080, Caco2 versus normal fibroblast cells
# Source text: Therapeutic universality of selenocoxib-1-GSH for killing cancer cells is examined by treating pancreatic (MiaPaca-2), breast (MDA-MB-231), prostate (PC-3) or sarcoma (HT-1080) and colon (Caco2) cell. lines with the drug and establishing the IC50 for each cell line, Table III. Selenocoxib-1-GSH kills the various cancer cell lines at 2-3-fold lower concentrations than normal fibroblast cells.
# [8] = tested on: UACC 903 melanoma cells; assay: Reactive oxygen species (ROS) assay; type: cell-based, human; conditions: 5, 10, 15 and 20 μmol/L, 24 hours, compared to celecoxib and selenocoxib-1
# Experimental: (§4) Intracellular ROS are monitored according to a procedure described in detail in Smasundaram et al., Cancer Res., 62:3868-3875, 2002. […] After 24 hours treatment, total cells (floating and adherent) are collected in ice-cold phosphate-buffered saline and 5×10^3 cells/well placed in 100 microliters culture medium in a 96-well plate containing 10 micromoles/liter 2′,7′-dichlorfluorescein-diacetate (commercially available from Sigma, St. Louis, Mo.) and incubated at 37° C. for 30 minutes. The amount of ROS present compared to DMSO vehicle treated cells was represented in arbitrary units.
# (§5) Selenocoxib-1-GSH inhibits the generation of ROS.
# [9] = tested on: 1205 Lu melanoma cells; assay: Reactive oxygen species (ROS) assay; type: cell-based, human; conditions: 5, 10, 15 and 20 μmol/L, 24 hours, compared to celecoxib and selenocoxib-1
# Experimental: as §4, §5
# [10] = tested on: normal human melanocytes or fibroblast cells
# Experimental: Cell viability, proliferation, apoptosis and cell cycle analysis: Viability and IC50 (μmol/L) of normal human melanocytes, fibroblast and melanoma cells following treatment with inhibitors are measured using the MTS assay (Promega, Madison, Wis.) described in Sharma A, et al., Clin Cancer Res 2009; 15:1674-85; and Madhunapantula S V, et al., Mol Cancer Ther 2008; 7:1297-308. […] IC50 values for each inhibitor in μmol/L for respective cell lines are measured from three independent experiments using GraphPad Prism version 4.01 (GraphPad Software, La Jolla, Calif.).
# [11] = target: T1, Human recombinant COX-2 (Homo sapiens, UniProt P35354); type: biochemical; conditions: 0.2, 2.0 and 20 nM; DMSO = 100% activity; FIG. 2C
# T1 construct: purchased Cayman Chemical, Ann Arbor, Mich
# T1 sequence (P35354 18-604): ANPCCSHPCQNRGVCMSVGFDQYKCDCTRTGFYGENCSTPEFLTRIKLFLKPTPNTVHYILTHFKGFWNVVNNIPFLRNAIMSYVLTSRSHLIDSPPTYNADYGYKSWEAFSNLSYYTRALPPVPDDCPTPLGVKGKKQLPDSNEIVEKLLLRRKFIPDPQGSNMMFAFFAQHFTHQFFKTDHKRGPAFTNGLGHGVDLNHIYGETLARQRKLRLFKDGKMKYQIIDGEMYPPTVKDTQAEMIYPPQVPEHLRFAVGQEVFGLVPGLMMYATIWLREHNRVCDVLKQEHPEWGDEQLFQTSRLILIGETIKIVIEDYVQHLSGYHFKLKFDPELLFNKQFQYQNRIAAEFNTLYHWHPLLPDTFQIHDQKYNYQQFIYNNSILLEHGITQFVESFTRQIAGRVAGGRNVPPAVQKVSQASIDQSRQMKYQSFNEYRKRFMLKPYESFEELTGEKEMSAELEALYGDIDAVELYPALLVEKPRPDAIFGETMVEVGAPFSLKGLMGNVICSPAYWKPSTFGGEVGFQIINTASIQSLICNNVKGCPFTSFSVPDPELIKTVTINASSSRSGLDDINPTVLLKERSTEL
# [12] = Toxicity assessments: blood markers and H&E of vital organs; type: in vivo
# Experimental: Four to six week old athymic-Foxn1^nu nude mice (Harlan Sprague Dawley, IN), are treated with either vehicle control or selenocoxib-1-GSH (n=5) as described in tumor kinetics studies. At the end of treatment, blood is collected from each sacrificed animal in a plasma separator tube with lithium heparin (BD Microtainer) following cardiac puncture and analyzed for ALKP (Alkaline phosphatase), ALT (Alanine aminotransferase), AST (Aspartate aminotransferase), ALB (Total albumin), TBIL (Total bilirubin), CREA (Creatinine), BUN (Blood urea nitrogen), CHOL (Total cholesterol), TRIG (Total triglyceride) and GLU (Glucose) levels to ascertain possible liver, heart, kidney, and pancreas related toxicity. A portion of vital organs, liver, heart, kidney, pancreas, and spleen-from each animal is formalin-fixed and paraffin-embedded to examine toxicity-associated changes in cell morphology and tissue organization following H&E staining as described in Nguyen N, et al. Cancer Prev Res (Phila) 2011; 4: 248-58.
smiles,measurement,setting,value
"NC(CCC(=O)NC(CS[Se]Cc1cc(-c2ccccc2)n(-c2ccc(S(N)(=O)=O)cc2)n1)C(=O)NCC(=O)O)C(=O)O (stereo not drawn) [Selenocoxib-1-GSH, selenocoxib-1-glutathione]",cell proliferation (BrdU incorporation),[1],reduces proliferation
same,cell proliferation (BrdU incorporation),[2],reduces proliferation
same,day from which a significant decrease in xenograft tumor development is observed,"[3]; 1205 Lu tumors, compared to vehicle DMSO",16 days
same,decrease in tumor volume,"[3]; 1205 Lu, at the end of treatment, compared to controls",≤ 70%
same,reduction of tumor development,"[3]; 1205 Lu, 0.127 μmoles (10 ppm selenium) intraperitoneally on alternate days for 4 weeks, compared to DMSO control",70.5%
same,decrease in tumor volume,"[4]; UACC 903, at the end of treatment, compared to controls",≤ 70%
same,reduction of tumor development,"[4]; UACC 903, 0.127 μmoles (10 ppm selenium) intraperitoneally on alternate days for 4 weeks, compared to DMSO control",52%
same,day from which a significant decrease in xenograft tumor development is observed,"[4]; UACC 903 tumors, compared to vehicle DMSO",22 days
same,caspase-3/7 activity,"[5]; UACC 903, 50 μmol/L, 72 h",significant decrease
same,caspase-3/7 activity,"[5]; UACC 903, 72 h, dose dependent up to 25 μmol/L",increases caspase-3/7 activity
same,caspase-3/7 activity,[6],increases caspase-3/7 activity
same,lower concentrations killing cancer cell lines than normal fibroblast cells,[7],2-3 fold
same,ROS,[8],more dramatically decreased ROS
same,ROS,[9],more dramatically decreased ROS
same,toxicity on normal cells relative to melanoma cells,[10],significantly lower toxicity on normal cells
same,COX-2 inhibitory activity,[11],retain COX-2 inhibitory activity
same,"H&E stained tissue sections of liver, heart, lung, kidney or spleen","[12]; at the end of treatment, versus DMSO vehicle",no changes in the morphology or architecture
same,"levels of blood markers for major organ related toxicity (ALKP, ALT, AST, ALB, TBIL, CREA, BUN, CHOL, TRIG, GLU)","[12]; mouse, in vivo",negligible differences compared to controls
